Broadly, the pIC50 is the negative decadic logarithm of the IC50, by convention in mol/L.

This note sets out measurements from patent US20220251079A1, “BENZO[B][1,8]NAPHTHYRIDINE ACETIC ACID DERIVATIVES AND METHODS OF USE” (STINGTHERA, INC., priority 2019, published 2022).

The target of experiment [1] is T1, human STING protein (140-379) (Homo sapiens, UniProt Q86WV6, H232R).
T1 construct: 6XHIS-SUMO-hSTING (140-379); made in house; host or cells: BL-21(DE3) E. coli, pET vector
Put plainly: Radiometric filtration binding competition assay (WT_FBA_HIS-SUMO-hSWAT). The settings on record: read-out: WT-hSWAT IC50. The method, boiled down:
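Compounds (2-fold dilutions, 8 points, top 300 μM) were preincubated for 30 min with 0.5 μM recombinant C-terminal STING domain, human residues 140-379 or mouse residues 139-328, His-SUMO tagged. Displacement of a tritium-labelled probe was read by filtration and scintillation counting. Dose-response fits gave IC50, then Ki.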

A further experiment has as its target T2, hSTING-R232 (Homo sapiens, UniProt Q86WV6, H232R).
T2 construct: recombinant mouse or human STING protein (aa140-379); 6xHis-SUMO elsewhere) (cleaved yes); made in house
Put plainly: STING Differential Scanning Fluorimetry (DSF) assay, human. In kind it is binding. The settings on record: human STING R232-WT, 5 μM protein. The method, boiled down:
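Purified STING C-terminal domain (aa140-379, R232), human or mouse, at 5 μM in 100 mM NaCl, 30 mM HEPES pH 7.5 with SYBR Orange, was heated at 0.5° C./min. Tm came from dF/dT; ΔTm and FC50 were derived from an 11-point 2-fold series from 300 μM, in duplicate.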
(In general: Differential scanning fluorimetry follows unfolding on heating by fluorescence.)

In another experiment the target is T3, STING protein (Homo sapiens, UniProt Q86WV6, H232R).
T3 construct: host or cells: THP-1 dual reporter cells, TMEM173 modified from HAQ to R232 (THP1-dual-KI R232)
Kind of experiment: Cell based reporter assay of IRF activation (THP1-dual-KI R232, IRF luciferase). Conditions: THP-1; read-out: THP1-dual-KI R232_IRF(Luciferase)_Activity Maximum measured (%). The method, boiled down: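 THP-1 monocytes stably carried an ISG54/5×ISRE firefly luciferase IRF reporter, with TMEM173 knock-in H71R A230G Q293R (R232 variant), and there was no PMA pre-activation. Compounds were tested at 8 points, 2-fold, in duplicate from 150 µM. Cell Titer Glo was applied after supernatant removal.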
A general note: In a reporter assay the amount or activity of a reporter protein is the signal.

Structures are written as SMILES. pIC50: −log10 of the molar value.

T3 sequence (Q86WV6 whole entry H232R): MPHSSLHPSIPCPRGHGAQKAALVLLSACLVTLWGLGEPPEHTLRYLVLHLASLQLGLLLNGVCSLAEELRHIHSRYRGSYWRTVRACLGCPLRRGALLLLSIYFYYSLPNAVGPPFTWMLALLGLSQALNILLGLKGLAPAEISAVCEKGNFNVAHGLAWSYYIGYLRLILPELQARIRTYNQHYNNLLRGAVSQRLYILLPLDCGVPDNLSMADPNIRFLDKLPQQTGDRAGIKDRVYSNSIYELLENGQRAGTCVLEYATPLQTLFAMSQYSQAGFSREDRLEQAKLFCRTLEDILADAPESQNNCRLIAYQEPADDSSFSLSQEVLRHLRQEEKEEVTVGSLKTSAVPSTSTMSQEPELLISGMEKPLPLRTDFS
T2 sequence (Q86WV6 140-379 H232R): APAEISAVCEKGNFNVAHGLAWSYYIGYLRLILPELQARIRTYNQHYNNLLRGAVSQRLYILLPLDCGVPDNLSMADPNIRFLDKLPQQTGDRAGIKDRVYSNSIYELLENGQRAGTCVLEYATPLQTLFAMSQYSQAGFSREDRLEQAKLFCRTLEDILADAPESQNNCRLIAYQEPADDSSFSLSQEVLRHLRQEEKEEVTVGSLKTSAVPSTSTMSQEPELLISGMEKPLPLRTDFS
T1 sequence (Q86WV6 140-379 H232R): as above

For the compound `CSc1c(Cl)ccc2c(=O)c3ccc(N(CC4CC4)CC4COC4)nc3n(CC(=O)O)c12` [Compound 38, sodium 2-(8-chloro-2-((cyclopropylmethyl)(oxetan-3-ylmethyl)amino)-9-(methylthio)-5-oxobenzo[b][1,8]naphthyridin-10(5H)-yl)acetate], the pIC50 in experiment [1] was 4.00 to 4.70. For the same compound, the “WT_DSF_hSWAT Tm Shift (° C.)” value on hSTING-R232 is given as “D (“D” > 7° C.)”. The Emax on STING protein was more than 50%.

`CSc1c(Cl)ccc2c(=O)c3ccc(NC4CC(C#N)C4)nc3n(CC(=O)O)c12` (stereo not drawn) [Compound 56, sodium 2-(8-chloro-2-((3-cyanocyclobutyl)amino)-9-(methylthio)-5-oxobenzo[b][1,8]naphthyridin-10(5H)-yl)acetate]: the pIC50 in experiment [1] was more than 4.70. For the same compound, the “WT_DSF_hSWAT Tm Shift (° C.)” value on hSTING-R232 is recorded as “D (“D” > 7° C.)”. Also, at STING protein, the Emax was more than 50%.

With `CSc1c(Cl)ccc2c(=O)c3ccc(C=C4COC4)nc3n(CC(=O)O)c12` [Compound 65, 2-(8-chloro-9-(methylthio)-2-(oxetan-3-ylidenemethyl)-5-oxobenzo[b][1,8]naphthyridin-10(5H)-yl)acetic acid], the negative logarithm of the IC50 (pIC50) in experiment [1] is 4.00 to 4.70. In addition, the “WT_DSF_hSWAT Tm Shift (° C.)” value on hSTING-R232 was “D (“D” > 7° C.)”. The Emax at STING protein was more than 50%.

Turning to `CCOc1c(Cl)ccc2c(=O)c3ccc(N(CCOC)C4CC4)nc3n(CC(=O)O)c12` [Compound 29, sodium 2-(8-chloro-2-(cyclopropyl(2-methoxyethyl)amino)-9-ethoxy-5-oxobenzo[b][1,8]naphthyridin-10(5H)-yl)acetate], the pIC50 in experiment [1] is 4.00 to 4.70. At hSTING-R232, the “WT_DSF_hSWAT Tm Shift (° C.)” value is “D (“D” > 7° C.)”. In addition, the Emax at STING protein was more than 50%.

`CCOc1c(Cl)ccc2c(=O)c3ccc(N(C)CCn4ccnc4)nc3n(CC(=O)O)c12` [Compound 72, sodium 2-(8-chloro-9-ethoxy-2-{[2-(imidazole-1-yl)ethyl](methyl)amino}-5-oxobenzo[b]1,8-naphthyridin-10-yl)acetate]: the pIC50 in experiment [1] is 3.52 to 4.00. Further, at hSTING-R232, the “WT_DSF_hSWAT Tm Shift (° C.)” value was “D (“D” > 7° C.)”. For the same compound, the Emax on STING protein is 5 to 25%.

Regarding `CSc1c(Cl)ccc2c(=O)c3ccc(N(C)CCn4ccnc4)nc3n(CC(=O)O)c12` [Compound 71, Sodium 2-(8-chloro-2-{[2-(imidazole-1-yl)ethyl](methyl)amino}-9-(methylsulfanyl)-5-oxobenzo[b]1,8-naphthyridin-10-yl)acetate], in experiment [1], the pIC50 was 4.00 to 4.70. At hSTING-R232, the “WT_DSF_hSWAT Tm Shift (° C.)” value was “D (“D” > 7° C.)”. Moreover, the Emax at STING protein was 5 to 25%.

In the case of `CSc1c(Cl)ccc2c(=O)c3ccc(N(C)C4CC(C)(C)C4)nc3n(CC(=O)O)c12` [Compound 48, sodium 2-(8-chloro-2-((3,3-dimethylcyclobutyl)(methyl)amino)-9-(methylthio)-5-oxobenzo[b][1,8]naphthyridin-10(5H)-yl)acetate], in experiment [1], the pIC50 is more than 4.70. The “WT_DSF_hSWAT Tm Shift (° C.)” value at hSTING-R232 is reported as “D (“D” > 7° C.)”. Also, the Emax at STING protein was more than 50%.

Consider `CSc1c(Cl)ccc2c(=O)c3ccc(N(C)CCS(C)(=O)=O)nc3n(CC(=O)O)c12` [Compound 34, Sodium 2-{8-chloro-2-[(2-methanesulfonylethyl)(methyl)amino]-9-(methylsulfanyl)-5-oxobenzo[b]1,8-naphthyridin-10-yl}acetate], for which the pIC50 in experiment [1] was 4.00 to 4.70. On hSTING-R232, the “WT_DSF_hSWAT Tm Shift (° C.)” value is “D (“D” > 7° C.)”. In addition, the Emax on STING protein was in the range of 25 to 50%.

In the case of `CN(C)c1c(Cl)ccc2c(=O)c3ccc(N(C)CC4CC(F)(F)C4)nc3n(CC(=O)O)c12` [Compound 26, sodium 2-(8-chloro-2-(((3,3-difluorocyclobutyl)methyl) (methyl)amino)-9-(dimethylamino)-5-oxobenzo[b][1,8]naphthyridin-10(5H)-yl)acetate], in experiment [1], the pIC50 is more than 4.70. The “WT_DSF_hSWAT Tm Shift (° C.)” value on hSTING-R232 is “D (“D” > 7° C.)”. On STING protein, the Emax is more than 50%.

For the compound `Cc1ccc2c(=O)c3ccc(Cl)c(N(C)C)c3n(CC(=O)O)c2n1` [Compound 4], the pIC50 in experiment [1] was 4.00 to 4.70. For the same compound, the “WT_DSF_hSWAT Tm Shift (° C.)” value at hSTING-R232 is listed as “D (“D” > 7° C.)”. The Emax at STING protein is more than 50%.

For `CCN(CCOC)c1nc2c(cc1Cl)c(=O)c1ccc(Cl)c(SC)c1n2CC(=O)O` [Compound 59, sodium 2-(3,8-dichloro-2-(ethyl(2-methoxyethyl)amino)-9-(methylthio)-5-oxobenzo[b][1,8]naphthyridin-10(5H)-yl)acetate], the negative-log IC50 (pIC50) in experiment [1] is 4.00 to 4.70. For the same compound, the “WT_DSF_hSWAT Tm Shift (° C.)” value at hSTING-R232 is “D (“D” > 7° C.)”. Besides, the Emax at STING protein is more than 50%.

Turning to `COC1CC(CN(C)c2ccc3c(=O)c4ccc(Cl)c(SC)c4n(CC(=O)O)c3n2)C1` (stereo not drawn) [Compound 39, Sodium 2-(8-chloro-2-(((3-methoxycyclobutyl)methyl)(methyl)amino)-9-(methylthio)-5-oxobenzo[b][1,8]naphthyridin-10(5H)-yl)acetate], the pIC50 in experiment [1] was 4.00 to 4.70. Also, on hSTING-R232, the “WT_DSF_hSWAT Tm Shift (° C.)” value is given as “D (“D” > 7° C.)”. Moreover, on STING protein, the Emax was more than 50%.

As to `CSc1c(Cl)ccc2c(=O)c3ccc(N(C)C4CC(F)(F)C4)nc3n(CC(=O)O)c12` [Compound 41, Sodium 2-(8-chloro-2-((3,3-difluorocyclobutyl)(methyl)amino)-9-(methylthio)-5-oxobenzo[b][1,8]naphthyridin-10(5H)-yl)acetate], the negative-log IC50 (pIC50) in experiment [1] was 4.00 to 4.70. Also, on hSTING-R232, the “WT_DSF_hSWAT Tm Shift (° C.)” value is reported as “D (“D” > 7° C.)”. In addition, on STING protein, the Emax was more than 50%.

As to `Cc1ccc2c(=O)c3ccc(Cl)c(N(C)C)c3n(CC(=O)NC#N)c2n1` [Compound 11], the pIC50 in experiment [1] is less than 3.52. On hSTING-R232, the “WT_DSF_hSWAT Tm Shift (° C.)” value is recorded as “B (“B” = 0-2° C.)”. Further, at STING protein, the Emax was less than 5%.

As to `CSc1c(Cl)ccc2c(=O)c3ccc(C(C)=O)nc3n(CC(=O)O)c12` [Compound 32, sodium 2-(2-acetyl-8-chloro-9-(methylthio)-5-oxobenzo[b][1,8]naphthyridin-10(5H)-yl)acetate], in experiment [1], the pIC50 is 3.52 to 4.00. For the same compound, the “WT_DSF_hSWAT Tm Shift (° C.)” value at hSTING-R232 was “C (“C” = 2-7° C.)”. Further, the Emax at STING protein was more than 50%.

As for `CN(C)c1c(Cl)ccc2c(=O)c3ccc(C(C)(C)C(N)=O)nc3n(CC(=O)O)c12` [Compound 20, 2-(2-(1-amino-2-methyl-1-oxopropan-2-yl)-8-chloro-9-(dimethylamino)-5-oxobenzo[b][1,8]naphthyridin-10(5H)-yl)acetic acid], the pIC50 in experiment [1] was 3.52 to 4.00. At hSTING-R232, the “WT_DSF_hSWAT Tm Shift (° C.)” value is listed as “C (“C” = 2-7° C.)”. Moreover, the Emax on STING protein was more than 50%.

Consider `C=Cc1c(Cl)ccc2c(=O)c3ccc(N(C)C)nc3n(CC(=O)O)c12` [Compound 78, 2-(8-chloro-2-(dimethylamino)-5-oxo-9-vinylbenzo[b][1,8]naphthyridin-10(5H)-yl)acetic acid], for which the pIC50 in experiment [1] is 4.00 to 4.70. Also, the “WT_DSF_hSWAT Tm Shift (° C.)” value on hSTING-R232 was “D (“D” > 7° C.)”. Moreover, on STING protein, the Emax is more than 50%.

On to `CN(C)c1ccc2c(=O)c3ccc(Cl)c(N(C)C)c3n(CC(=O)O)c2n1` [Compound 19, sodium 2-(8-chloro-2,9-bis(dimethylamino)-5-oxobenzo[b][1,8]naphthyridin-10(5H)-yl)acetate], for which the negative-log IC50 (pIC50) in experiment [1] is 4.00 to 4.70. Moreover, at hSTING-R232, the “WT_DSF_hSWAT Tm Shift (° C.)” value is given as “D (“D” > 7° C.)”. Moreover, the Emax at STING protein was more than 50%.

Regarding `Cc1ccc2c(=O)c3ccc(Cl)c(N(C)C)c3n(CC(=O)NS(C)(=O)=O)c2n1` [Compound 10], in experiment [1], the pIC50 is less than 3.52. The “WT_DSF_hSWAT Tm Shift (° C.)” value at hSTING-R232 was “C (“C” = 2-7° C.)”. For the same compound, the Emax on STING protein was more than 50%.

In the case of `CSc1c(Cl)ccc2c(=O)c3ccc(Nc4ccccc4F)nc3n(CC(=O)O)c12` [Compound 57, sodium 2-(8-chloro-2-((2-fluorophenyl)amino)-9-(methylthio)-5-oxobenzo[b][1,8]naphthyridin-10(5H)-yl)acetate], the pIC50 in experiment [1] was more than 4.70. Also, the “WT_DSF_hSWAT Tm Shift (° C.)” value at hSTING-R232 was “D (“D” > 7° C.)”. Besides, at STING protein, the Emax is more than 50%.

For the compound `CSc1c(Cl)ccc2c(=O)c3ccc(N(C)CCn4ccnc4C)nc3n(CC(=O)O)c12` [Compound 81, sodium 2-(8-chloro-2-{methyl[2-(2-methylimidazol-1-yl)ethyl]amino}-9-(methylsulfanyl)-5-oxobenzo[b]1,8-naphthyridin-10-yl)acetate], the negative-log IC50 (pIC50) in experiment [1] is 4.00 to 4.70. For the same compound, the “WT_DSF_hSWAT Tm Shift (° C.)” value on hSTING-R232 was “D (“D” > 7° C.)”. In addition, on STING protein, the Emax is 5 to 25%.

For the compound `CSc1c(Cl)ccc2c(=O)c3ccc(N(C)CCS(=O)(=O)C(C)C)nc3n(CC(=O)O)c12` [Compound 35, sodium 2-(8-chloro-2-{methyl[2-(propane-2-sulfonyl)ethyl]amino}-9-(methylsulfanyl)-5-oxobenzo[b]1,8-naphthyridin-10-yl)acetate], the negative-log IC50 (pIC50) in experiment [1] is 4.00 to 4.70. Also, the “WT_DSF_hSWAT Tm Shift (° C.)” value at hSTING-R232 is given as “D (“D” > 7° C.)”. Further, at STING protein, the Emax was more than 50%.
